Experimental findings from US20240025884A1 (Dong-A ST Co., Ltd., priority 2022, published 2024) are described below.

As a reminder, the IC50 is the concentration that gives 50% inhibition.

Chain of GCN2 (Q9P2K8 whole entry): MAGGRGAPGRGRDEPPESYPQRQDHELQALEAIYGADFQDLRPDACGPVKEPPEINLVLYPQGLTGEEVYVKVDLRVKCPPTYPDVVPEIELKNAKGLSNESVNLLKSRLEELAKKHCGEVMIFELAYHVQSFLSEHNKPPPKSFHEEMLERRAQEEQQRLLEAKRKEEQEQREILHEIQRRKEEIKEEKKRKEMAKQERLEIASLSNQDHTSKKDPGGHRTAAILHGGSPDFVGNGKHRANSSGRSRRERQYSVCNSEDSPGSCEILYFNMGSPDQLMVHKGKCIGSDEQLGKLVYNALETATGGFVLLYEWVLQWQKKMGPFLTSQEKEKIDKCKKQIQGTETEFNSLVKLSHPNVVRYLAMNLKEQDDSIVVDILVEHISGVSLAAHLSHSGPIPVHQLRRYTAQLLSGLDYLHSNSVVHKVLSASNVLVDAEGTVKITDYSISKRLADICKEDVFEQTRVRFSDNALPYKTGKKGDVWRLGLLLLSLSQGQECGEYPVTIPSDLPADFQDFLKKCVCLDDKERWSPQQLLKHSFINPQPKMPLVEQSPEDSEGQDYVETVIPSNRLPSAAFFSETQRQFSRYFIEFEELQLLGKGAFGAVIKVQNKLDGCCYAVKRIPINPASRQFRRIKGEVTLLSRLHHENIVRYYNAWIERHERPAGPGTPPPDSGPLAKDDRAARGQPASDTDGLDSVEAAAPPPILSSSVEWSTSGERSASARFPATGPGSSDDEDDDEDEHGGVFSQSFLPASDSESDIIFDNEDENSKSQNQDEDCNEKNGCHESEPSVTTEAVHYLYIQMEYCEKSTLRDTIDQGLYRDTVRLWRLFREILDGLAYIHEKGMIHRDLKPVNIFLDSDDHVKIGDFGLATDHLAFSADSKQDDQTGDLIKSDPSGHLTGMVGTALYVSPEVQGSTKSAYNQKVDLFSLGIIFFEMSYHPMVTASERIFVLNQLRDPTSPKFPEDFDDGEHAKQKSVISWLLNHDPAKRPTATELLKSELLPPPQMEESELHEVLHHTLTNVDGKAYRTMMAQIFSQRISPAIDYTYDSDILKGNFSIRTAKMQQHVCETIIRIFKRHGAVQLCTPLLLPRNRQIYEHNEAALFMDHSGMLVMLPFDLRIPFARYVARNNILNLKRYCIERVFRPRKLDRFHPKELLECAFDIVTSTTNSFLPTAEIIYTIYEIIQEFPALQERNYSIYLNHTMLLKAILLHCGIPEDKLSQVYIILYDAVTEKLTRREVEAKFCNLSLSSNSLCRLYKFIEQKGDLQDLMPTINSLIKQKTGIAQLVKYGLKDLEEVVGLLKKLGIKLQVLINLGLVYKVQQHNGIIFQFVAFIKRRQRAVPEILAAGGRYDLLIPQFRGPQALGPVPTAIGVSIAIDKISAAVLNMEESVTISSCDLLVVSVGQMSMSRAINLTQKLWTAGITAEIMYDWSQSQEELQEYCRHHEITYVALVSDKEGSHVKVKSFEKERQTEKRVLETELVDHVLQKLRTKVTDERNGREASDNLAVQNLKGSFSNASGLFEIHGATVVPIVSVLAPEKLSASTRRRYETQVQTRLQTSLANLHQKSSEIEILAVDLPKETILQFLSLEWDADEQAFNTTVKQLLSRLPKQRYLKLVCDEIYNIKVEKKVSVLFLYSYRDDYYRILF

The assay deals with GCN2 (Homo sapiens (Human), UniProt Q9P2K8). Kind of assay: GCN2 Biochemical Assay (TR-FRET, GFP-eIF2S1 substrate phosphorylation). The conditions noted are these: read-out: IC50 (GCN2 Inhibitory Activity). A digest of the protocol:
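TR-FRET readout (Ex 340, Em 490/520 nm) after 2–3 h with Tb-labelled phospho-eIF2S1 antibody in stop mix, following a 70 min room-temperature kinase step. Reaction: in-house GCN2, GFP-eIF2S1, ATP, tRNA in Tris pH 7.5 (2× stocks 1.6 nM, 50 nM, 0.2 mM); compounds tested at 10 concentrations, with a phospho-substrate artifact counter-plate.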
A general note: TR-FRET usually uses a lanthanide donor and a delayed reading to cut background.
Turning to `Cc1cnc(Nc2cc(C)n(C)n2)nc1-c1c[nH]c2c(N3Cc4c(NC(=O)c5ccccn5)cccc4C3=O)cccc12` [Example 297, N-(2-(3-(2-((1,5-dimethyl-1H-pyrazol-3-yl)amino)-5-methylpyrimidin-4-yl)-1H-indol-7-yl)-1-oxoisoindolin-4-yl)picolinamide], the IC50 is < 10 nM.

In the case of `Cc1cnc(Nc2cc(C)n(C)n2)nc1-c1c[nH]c2c(NC(=O)CN3CCC(Oc4ccncc4)CC3)cccc12` [Example 40, N-(3-(2-((1,5-dimethyl-1H-pyrazol-3-yl)amino)-5-methylpyrimidin-4-yl)-1H-indol-7-yl)-2-(4-(pyridin-4-yloxy)piperidin-1-yl)acetamide], the IC50 was in the range of 100 to 1000 nM.

For the compound `Cc1cnc(Nc2cc(C)n(C)n2)nc1-c1c[nH]c2c(NC(=O)CN3C[C@@H](Oc4ccnc(NC5CC5)n4)C[C@H]3CO)cccc12` [Example 57, 2-((2S,4S)-4-((2-(cyclopropylamino)pyrimidin-4-yl)oxy)-2-(hydroxymethyl)pyrrolidin-1-yl)-N-(3-(2-((1,5-dimethyl-1H-pyrazol-3-yl)amino)-5-methylpyrimidin-4-yl)-1H-indol-7-yl)acetamide], the IC50 is < 10 nM.

`Cc1cnc(Nc2cc(C)n(C)n2)nc1-c1c[nH]c2c(N3Cc4c(cccc4C4=CCN(C)CC4)C3=O)cccc12` [Example 464, 2-(3-(2-((1,5-dimethyl-1H-pyrazol-3-yl)amino)-5-methylpyrimidin-4-yl)-1H-indol-7-yl)-4-(i-methyl-1,2,3,6-tetrahydropyridin-4-yl)isoindolin-1-one]: the IC50 is < 10 nM.

In the case of `Cc1cnc(Nc2cc(C)n(C)n2)nc1-c1c[nH]c2c(NC(=O)CN3CC[C@H](Oc4ccnc(N5CCCC5)n4)C3)cccc12` [Example 222, (S)-N-(3-(2-((1,5-dimethyl-1H-pyrazol-3-yl)amino)-5-methylpyrimidin-4-yl)-1H-indol-7-yl)-2-(3-((2-(pyrrolidin-t-yl)pyrimidin-4-yl)oxy)pyrrolidin-1-yl)acetamide], the IC50 was 10 to 100 nM.

For `COC(=O)c1ccccc1-c1cccc2c1CN(c1cccc3c(-c4nc(Nc5cc(C)n(C)n5)ncc4C)c[nH]c13)C2=O` [Example 463, methyl 2-(2-(3-(2-((1,5-dimethyl-1H-pyrazol-3-yl)amino)-5-methylpyrimidin-4-yl)-1H-indol-7-yl)-1-oxoisoindolin-4-yl)benzoate], the IC50 fell in the range of 100 to 1000 nM.

As for `Cc1cnc(Nc2cc(C)n(C)n2)nc1-c1c[nH]c2c(NC(=O)CN3CC[C@H](CC#N)C3)cccc12` [Example 46, (R)-2-(3-(cyanomethyl)pyrrolidin-1-yl)-N-(3-(2-((1,5-dimethyl-1H-pyrazol-3-yl)amino)-5-methylpyrimidin-4-yl)-1H-indol-7-yl)acetamide], the IC50 was in the range of 100 to 1000 nM.

Consider `Cc1cnc(Nc2cc(C)n(C)n2)nc1-c1c[nH]c2c(NC(=O)CN3CC[C@H](Oc4ccnc(NCCO)n4)C3)cccc12` [Example 215, (S)-N-(3-(2-((1,5-dimethyl-1H-pyrazol-3-yl)amino)-5-methylpyrimidin-4-yl)-1H-indol-7-yl)-2-(3-((2-((2-hydroxyethyl)amino)pyrimidin-4-yl)oxy)pyrrolidin-1-yl)acetamide], for which the IC50 was < 10 nM.

For the compound `Cc1ncc(Br)c(O[C@H]2CCN(CC(=O)Nc3cccc4c(-c5nc(Nc6cc(C)n(C)n6)ncc5C)c[nH]c34)C2)n1` [Example 97, (S)-2-(3-((5-bromo-2-methylpyrimidin-4-yl)oxy)pyrrolidin-1-yl)-N-(3-(2-((1,5-dimethyl-1H-pyrazol-3-yl)amino)-5-methylpyrimidin-4-yl)-1H-indol-7-yl)acetamide], the IC50 lay in the range of 10 to 100 nM.

For `Cc1cnc(Nc2cc(C)n(C)n2)nc1-c1c[nH]c2c(N3Cc4c(NC(=O)c5ccon5)cccc4C3=O)cccc12` [Example 324, N-(2-(3-(2-((1,5-dimethyl-1H-pyrazol-3-yl)amino)-5-methylpyrimidin-4-yl)-1H-indol-7-yl)-1-oxoisoindolin-4-yl)isoxazole-3-carboxamide], the IC50 fell in the range of 10 to 100 nM.
